Reference: patent US11207320B2, “Compositions and methods for cancer expressing PDE3A or SLFN12” (The Broad Institute, Inc., priority 2015, dated 2021)

Tested on: 766 cancer cell lines
Experiment: Large-scale cell-line viability measurements (766 cancer cell lines, 72 h, AUC)
Assay type: cell-based, human
Experimental: Cell lines were treated for 72 hours with concentrations ranging from 66.4 μM-2 nM in 2-fold step dilutions.
To characterize cellular sensitivity to DNMDP further, 766 genomically characterized cancer cell lines were screened for DMNDP sensitivity at concentrations ranging from 66.4 μM to 2 nM in 2-fold dilution steps for 72 hours. From these cell lines, 22 cell lines were categorized as sensitive with a robust Z-score lower than −4, which represented multiple lineages including multiple melanoma cell lines, amongst others (Table 1).
The sensitivity of […] cancer cell lines (CCLs) was measured drawn from 23 different lineages to DNMDP. Each cell line was plated in its preferred media in white opaque 1536-plates at a density of 500 cells/well. After incubating overnight, DNMDP was added by acoustic transfer at 16 concentrations ranging from 66.4 μM-2 nM in 2-fold steps in duplicate (Labcyte Echo 555, Labcyte Inc., Sunnyvale, Calif.). After 72 hours treatment, cellular ATP levels were measured as a surrogate for viability (CELLTITERGLO®, Promega Corporation, Madison, Wis.) according to manufacturer's protocols using a ViewLux Microplate Imager (PerkinElmer, Waltham, Mass.) and normalized to background (media-only) and vehicle (DMSO)-treated control wells.
Concentration response curves were fit using nonlinear fits to 2- or 3-parameter sigmoid functions through all 16 concentrations with the low-concentration asymptote set to the DMSO-normalized value, and an optimal 8-point dose curve spanning the range of compound-sensitivity was identified. The area under the 8-point dose curve (AUC) was computed by numeric integration as a metric for sensitivity for further analysis. Similar sensitivity measurements have been obtained for a collection of 480 other compounds, enabling analyses that identify cell lines responding uniquely to DNMDP (see Broad Institute Cancer Therapeutics Response Portal, a dataset to identify comprehensively relationships between genetic and lineage features of human cancer cell lines and small-molecule sensitivities for complete list of compounds).

[1] = ALLSIL (HAEMATOPOIETIC AND LYMPHOID TISSUE), 72 hours
[2] = BICR6 (UPPER AERODIGESTIVE TRACT), 72 hours
[3] = DKMG (CENTRAL NERVOUS SYSTEM), 72 hours
[4] = DND41 (HAEMATOPOIETIC AND LYMPHOID TISSUE), 72 hours
[5] = EJM (HAEMATOPOIETIC AND LYMPHOID TISSUE), 72 hours
[6] = GB1 (CENTRAL NERVOUS SYSTEM), 72 hours
[7] = GOS3 (CENTRAL NERVOUS SYSTEM), 72 hours
[8] = GRANTA519 (HAEMATOPOIETIC AND LYMPHOID TISSUE), 72 hours
[9] = HEL9217 (HAEMATOPOIETIC AND LYMPHOID TISSUE), 72 hours
[10] = HUT78 (HAEMATOPOIETIC AND LYMPHOID TISSUE), 72 hours
[11] = KCL22 (HAEMATOPOIETIC AND LYMPHOID TISSUE), 72 hours
[12] = KMM1 (HAEMATOPOIETIC AND LYMPHOID TISSUE), 72 hours
[13] = KMS11 (HAEMATOPOIETIC AND LYMPHOID TISSUE), 72 hours
[14] = KMS12BM (HAEMATOPOIETIC AND LYMPHOID TISSUE), 72 hours
[15] = KMS20 (HAEMATOPOIETIC AND LYMPHOID TISSUE), 72 hours
[16] = KMS28BM (HAEMATOPOIETIC AND LYMPHOID TISSUE), 72 hours
[17] = KMS34 (HAEMATOPOIETIC AND LYMPHOID TISSUE), 72 hours
[18] = KO52 (HAEMATOPOIETIC AND LYMPHOID TISSUE), 72 hours
[19] = L540 (HAEMATOPOIETIC AND LYMPHOID TISSUE), 72 hours
[20] = L1236 (HAEMATOPOIETIC AND LYMPHOID TISSUE), 72 hours
[21] = LAMA84 (HAEMATOPOIETIC AND LYMPHOID TISSUE), 72 hours
[22] = LNCAPCLONEFGC (PROSTATE), 72 hours
[23] = LP1 (HAEMATOPOIETIC AND LYMPHOID TISSUE), 72 hours

For CCN(CC)c1ccc(C2=NNC(=O)CC2C)cc1[N+](=O)[O-] (centres unmarked) [DNMDP, 6-(4-(diethylamino)-3-nitrophenyl)-5-methyl-4,5-dihydropyridazin-3(2H)-one], the “number of cell lines categorized as sensitive (robust Z-score lower than −4)” value (766 cell lines, 66.4 μM to 2 nM, 72 hours) was 22 cell lines, the “share of cell lines with nanomolar efficacy” value (766 genomically-characterized cancer cell lines) was “about 3%” and the “DNMDP AUC” value (A549 (LUNG), 72 hours) was 5.9509. The “Robust Z-score” value (A549 (LUNG), 72 hours) was −0.7177, the “DNMDP AUC” value [1] was 5.8724 and the “Robust Z-score” value [1] was −0.8001. For the same compound, the “DNMDP AUC” value [2] was 5.8837, the “Robust Z-score” value [2] was −0.7882 and the “DNMDP AUC” value (BT549 (BREAST), 72 hours) was 5.9226. For the same compound, the “Robust Z-score” value (BT549 (BREAST), 72 hours) was −0.7474, the “DNMDP AUC” value (C32 (SKIN), 72 hours) was 6.1786 and the “Robust Z-score” value (C32 (SKIN), 72 hours) was −0.4787. For the same compound, the “DNMDP AUC” value (CAL54 (KIDNEY), 72 hours) was 6.1949, the “Robust Z-score” value (CAL54 (KIDNEY), 72 hours) was −0.4616 and the “DNMDP AUC” value (COLO668 (LUNG), 72 hours) was 5.9969. The “Robust Z-score” value (COLO668 (LUNG), 72 hours) was −0.6694, the “DNMDP AUC” value (COLO679 (SKIN), 72 hours) was 5.9634 and the “Robust Z-score” value (COLO679 (SKIN), 72 hours) was −0.7046. The “DNMDP AUC” value (COLO800 (SKIN), 72 hours) was 6.1272, the “Robust Z-score” value (COLO800 (SKIN), 72 hours) was −0.5326 and the “DNMDP AUC” value (CORL51 (LUNG), 72 hours) was 0.5944. For the same compound, the “Robust Z-score” value (CORL51 (LUNG), 72 hours) was −6.34, the “DNMDP AUC” value (COV362 (OVARY), 72 hours) was 5.6913 and the “Robust Z-score” value (COV362 (OVARY), 72 hours) was −0.9902. For the same compound, the “DNMDP AUC” value [3] was 1.7217, the “Robust Z-score” value [3] was −5.157 and the “DNMDP AUC” value (DMS53 (LUNG), 72 hours) was 6.2061. The “Robust Z-score” value (DMS53 (LUNG), 72 hours) was −0.4498, the “DNMDP AUC” value [4] was 6.1979 and the “Robust Z-score” value [4] was −0.4584. The “DNMDP AUC” value (DU145 (PROSTATE), 72 hours) was 5.7825, the “Robust Z-score” value (DU145 (PROSTATE), 72 hours) was −0.8945 and the “DNMDP AUC” value (DV90 (LUNG), 72 hours) was 6.1676. For the same compound, the “Robust Z-score” value (DV90 (LUNG), 72 hours) was −0.4902, the “DNMDP AUC” value (ECGI10 (OESOPHAGUS), 72 hours) was 6.2151 and the “Robust Z-score” value (ECGI10 (OESOPHAGUS), 72 hours) was −0.4404. For the same compound, the “DNMDP AUC” value [5] was 6.1782, the “Robust Z-score” value [5] was −0.4791 and the “DNMDP AUC” value (EPLC272H (LUNG), 72 hours) was 6.0469. The “Robust Z-score” value (EPLC272H (LUNG), 72 hours) was −0.6169, the “DNMDP AUC” value (G402 (SOFT TISSUE), 72 hours) was 6.0606 and the “Robust Z-score” value (G402 (SOFT TISSUE), 72 hours) was −0.6026. For the same compound, the “DNMDP AUC” value [6] was 1.8269, the “Robust Z-score” value [6] was −5.046 and the “DNMDP AUC” value [7] was 6.2076. For the same compound, the “Robust Z-score” value [7] was −0.4483, the “DNMDP AUC” value [8] was 5.8937 and the “Robust Z-score” value [8] was −0.7777. The “DNMDP AUC” value (GSU (STOMACH), 72 hours) was 6.1172, the “Robust Z-score” value (GSU (STOMACH), 72 hours) was −0.5431 and the “DNMDP AUC” value (HCC1395 (BREAST), 72 hours) was 5.9716. The “Robust Z-score” value (HCC1395 (BREAST), 72 hours) was −0.696, the “DNMDP AUC” value (HCC1419 (BREAST), 72 hours) was 5.7835 and the “Robust Z-score” value (HCC1419 (BREAST), 72 hours) was −0.8934. For the same compound, the “DNMDP AUC” value (HCC1428 (BREAST), 72 hours) was 5.9402, the “Robust Z-score” value (HCC1428 (BREAST), 72 hours) was −0.7289 and the “DNMDP AUC” value (HCC1500 (BREAST), 72 hours) was 5.9451. For the same compound, the “Robust Z-score” value (HCC1500 (BREAST), 72 hours) was −0.7238, the “DNMDP AUC” value [9] was 0.75 and the “Robust Z-score” value [9] was −6.177. For the same compound, the “DNMDP AUC” value (HS888T (BONE), 72 hours) was 5.8353, the “Robust Z-score” value (HS888T (BONE), 72 hours) was −0.839 and the “DNMDP AUC” value [10] was 1.5307. The “Robust Z-score” value [10] was −5.357, the “DNMDP AUC” value (IALM (LUNG), 72 hours) was 5.775 and the “Robust Z-score” value (IALM (LUNG), 72 hours) was −0.9023. For the same compound, the “DNMDP AUC” value (JHH4 (LIVER), 72 hours) was 5.71, the “Robust Z-score” value (JHH4 (LIVER), 72 hours) was −0.9706 and the “DNMDP AUC” value [11] was 5.9598. The “Robust Z-score” value [11] was −0.7084, the “DNMDP AUC” value [12] was 6.1723 and the “Robust Z-score” value [12] was −0.4853. The “DNMDP AUC” value [13] was 6.2008, the “Robust Z-score” value [13] was −0.4554 and the “DNMDP AUC” value [14] was 6.0135. For the same compound, the “Robust Z-score” value [14] was −0.652, the “DNMDP AUC” value [15] was 6.0542 and the “Robust Z-score” value [15] was −0.6093. For the same compound, the “DNMDP AUC” value [16] was 5.9369, the “Robust Z-score” value [16] was −0.7324 and the “DNMDP AUC” value [17] was 5.8799. For the same compound, the “Robust Z-score” value [17] was −0.7922, the “DNMDP AUC” value [18] was 6.2174 and the “Robust Z-score” value [18] was −0.438. For the same compound, the “DNMDP AUC” value (KYSE410 (OESOPHAGUS), 72 hours) was 6.0741, the “Robust Z-score” value (KYSE410 (OESOPHAGUS), 72 hours) was −0.5884 and the “DNMDP AUC” value [19] was 6.0807. The “Robust Z-score” value [19] was −0.5815, the “DNMDP AUC” value [20] was 6.0853 and the “Robust Z-score” value [20] was −0.5766. The “DNMDP AUC” value [21] was 5.8201, the “Robust Z-score” value [21] was −0.855 and the “DNMDP AUC” value (LMSU (STOMACH), 72 hours) was 6.0528. The “Robust Z-score” value (LMSU (STOMACH), 72 hours) was −0.6107, the “DNMDP AUC” value [22] was 5.7557 and the “Robust Z-score” value [22] was −0.9226. For the same compound, the “DNMDP AUC” value (LOUNH91 (LUNG), 72 hours) was 5.9793, the “Robust Z-score” value (LOUNH91 (LUNG), 72 hours) was −0.6879 and the “DNMDP AUC” value [23] was 6.1029. The “Robust Z-score” value [23] was −0.5582 and the “DNMDP AUC” value (LU99 (LUNG), 72 hours) was 5.8016.
